Read-outs that look alike come from different tables or passages of the source.
How the values were obtained:
PC-3 = test: MTS cytotoxic assay, PC-3; type: cell-based; conditions: Homo sapiens
Source text: (§1) If not indicated otherwise, the cell lines were purchased from the American Type Culture Collection (ATCC). […] K562 is the erythroid-myeloid precursor cell line derived from chronic myeloid leukemia carrying the BCR-ABL hybrid gene. A549, MCF-7, PC-3, 5637, U-2 OS, and MiaPaCa-2 are cells derived from lung, breast, prostate, bladder carcinoma, osteosarcoma, and pancreatic adenocarcinoma, respectively. HEK 293T are transformed human embryonic kidney cells, and L929 (Sigma, St. Louis, MS, USA) are transformed mouse fibroblasts. HCT116, cells from colorectal carcinoma, and their p53 gene knock-out variant (HCT116p53-/-) were purchased from Horizon Discovery. This cell line is a model of human tumors bearing p53 loss-of-function mutations or biallelic deletion of the p53 gene, frequently associated with poor prognosis. The MRC-5 and BJ cells were used as noncancerous cells; more specifically, they are human fibroblasts from the lungs and foreskin, respectively. According to the supplier’s recommendations, all cells were cultured at 37 °C in a 5% CO2 atmosphere and 100% humidity. The culture media used were: DMEM, RPMI 1640, and MEM (according to a cell line); all were supplemented with 5 g L^−1 glucose, 10% fetal calf serum, 2 mM glutamine, 100 U mL^−1 penicillin, 100 µg mL^−1 streptomycin, and NaHCO3. Cells were passaged every two or three days using 0.25% trypsin plus 0.01% EDTA (ethylenediamine tetraacetic acid) in phosphate-buffered saline.
(§2) To evaluate compound cytotoxicity, cells were seeded in 384-well microtiter plates in a volume of […]. The next day, aliquots of the tested derivatives were transferred with Echo550 acoustic liquid handler (Labcyte) to obtain dose response curves with dilution factor 4. The experiments were performed in technical duplicates and three or more biological replicates. After 72 h of incubation in a humidified incubator, […] of the MTS/PMS stock solution were pipetted into each well. After another 1–4 h of incubation, the absorbance at 490 nm was measured using an EnVision Multilabel Plate Reader (PerkinElmer).

MiaPaCa-2 = test: MTS cytotoxic assay, MiaPaCa-2; type: cell-based; conditions: Homo sapiens
Source text: as §1, §2

CCRF-CEM cells [1] = test: Cell cycle arrest and cell death analysis by flow cytometry (propidium iodide, pH3Ser10); type: cell-based, human; conditions: % of positive cells
Protocol: Together with the CG-treated cells, a vehicle-treated sample was harvested at the same time point. After 24 h, the cells were washed with cold phosphate-buffered saline, fixed dropwise in 70% ethanol, and stored overnight at −20 °C. The cells were then washed with hypotonic citrate buffer, treated with RNAse (50 µg mL^−1), and stained with propidium iodide. Flow cytometry using a 488 nm laser (FACS-Calibur, Becton Dickinson, NJ, USA) was used for measurement. The cell cycle was analyzed by the ModFitLT program (Verity), and apoptosis was measured in a logarithmic model expressing the percentage of particles with a lower propidium content than cells in the G0/G1 phase (<G1) of the cell cycle in the CellQuest program (Becton Dickinson). Half of the sample was used to label cells with pH3^Ser10-FITC antibody (Exbio) for subsequent flow cytometry analysis of mitotic cells.

HCT116p53-/- = test: MTS cytotoxic assay, HCT116p53-/-; type: cell-based; conditions: Homo sapiens, 72 h
Source text: as §1, §2

5637 = test: MTS cytotoxic assay, 5637; type: cell-based; conditions: Homo sapiens, 72 h
Source text: as §1, §2

BJ = test: MTS cytotoxic assay, BJ; type: cell-based; conditions: Homo sapiens, 72 h
Source text: as §1, §2

CCRF-CEM cells [2] = test: BrDU incorporation analysis (DNA synthesis); type: cell-based, human; conditions: % of positive cells
Protocol: The cells were cultured in the same way as the cell cycle analysis method. Just before harvesting, 5-bromo-2′-deoxyuridine (BrDU) of 10 µM concentration was added to the cells for pulse-labeling for 30 min. Then, the cells were fixed with −20 °C cold 70% ethanol and stored in a freezer for 16 h. Before antibody staining, the samples were incubated on ice for 30 min, washed once with phosphate-buffered saline (PBS), and re-suspended in 2 M of HCl for 30 min at room temperature to hydrolyze their DNA. After neutralization with 0.1 M of Na2B4O7 (borax) solution, the cells were washed with PBS containing 0.5% Tween-20 and 1% BSA. This was followed by staining with the primary anti-BrDU antibody (Exbio) for 30 min at room temperature. Then, the cells were washed with PBS and stained with a secondary anti-mouse antibody conjugated to fluorescein isothiocyanate (Merck-Sigma, St. Louis, MS, USA) at room temperature in the dark. After another washing with PBS and incubation with propidium iodide (0.1 mg·mL^−1) and RNAse A (0.5 mg·mL^−1) for 1 h at room temperature in the dark, the cells were analyzed by flow cytometry using a 488 nm laser (FACSCalibur, Becton Dickinson, Franklin Lakes, NJ, USA).

HCT116 = test: MTS cytotoxic assay, HCT116; type: cell-based; conditions: Homo sapiens
Source text: as §1, §2

CCRF-CEM = test: MTS cytotoxic assay, CCRF-CEM; type: cell-based; conditions: Homo sapiens, 72 h
Source text: as §1, §2

MCF-7 = test: MTS cytotoxic assay, MCF-7; type: cell-based; conditions: Homo sapiens
Source text: as §1, §2

K562 = test: MTS cytotoxic assay, K562; type: cell-based; conditions: Homo sapiens
Source text: as §1, §2

CCRF-CEM cells [3] = test: BrU incorporation analysis (RNA synthesis); type: cell-based, human; conditions: % of positive cells
Protocol: The cells were cultured and processed as described above. Before harvesting, the cells were pulse-labeled with 1 mM of 5-bromouridine (BrU) for 30 min. The cells were then fixed in 1% buffered paraformaldehyde with 0.05% NP-40 at room temperature for 15 min, and then stored at 4 °C overnight. Before measurement, they were washed with 1% glycine in PBS, washed again with PBS, and stained with primary anti-BrdU antibody cross-reactive to BrU (Exbio) for 30 min at room temperature in the dark. From this point on, the experiment was performed exactly as in the method described above.

HEK 293T = test: MTS cytotoxic assay, HEK 293T; type: cell-based; conditions: Homo sapiens, 72 h
Source text: as §1, §2

A549 = test: MTS cytotoxic assay, A549; type: cell-based; conditions: Homo sapiens
Source text: as §1, §2

L929 = test: MTS cytotoxic assay, L929; type: cell-based, mouse
Source text: as §1, §2

SMILES	IC50 (PC-3; PC-3, 72 h)	IC50 (MiaPaCa-2; MIA PaCa-2, 72 h)	< G1 (apoptotic cells) (CCRF-CEM cells [1]; 1 × IC50, 24 h)	G0/G1 (CCRF-CEM cells [1]; 1 × IC50, 24 h)	G2/M (CCRF-CEM cells [1]; 1 × IC50, 24 h)	M (Phospho-Histone3 (Ser10)) (CCRF-CEM cells [1]; 1 × IC50, 24 h)	S (CCRF-CEM cells [1]; 1 × IC50, 24 h)	< G1 (apoptotic cells) (CCRF-CEM cells [1]; 5 × IC50, 24 h)	G0/G1 (CCRF-CEM cells [1]; 5 × IC50, 24 h)	G2/M (CCRF-CEM cells [1]; 5 × IC50, 24 h)	M (Phospho-Histone3 (Ser10)) (CCRF-CEM cells [1]; 5 × IC50, 24 h)	S (CCRF-CEM cells [1]; 5 × IC50, 24 h)	IC50 (HCT116p53-/-)	IC50 5637	IC50 (BJ; BJ)	BrDU (CCRF-CEM cells [2]; 1 × IC50, 24 h)	BrDU (CCRF-CEM cells [2]; 5 × IC50, 24 h)	IC50 (HCT116; HCT-116, 72 h)	BrU (CCRF-CEM cells [3]; 1 × IC50, 24 h)	BrU (CCRF-CEM cells [3]; 5 × IC50, 24 h)	also measured
C[C@]12CC[C@H]3[C@@H](CCC4=C[C@@H](O[C@@H]5OC[C@@H](O)[C@H](O)[C@H]5O)CC[C@@]43C=O)[C@@]1(O)CC[C@@H]2C1=CC(=O)OC1 [deHyr, deglucohyrcanoside]	122 ± 4.7 nM	120 ± 5.2 nM	22.02%	44.90%	37.50%	1.44%	17.60%	27.43%	39.12%	26.34%	1.56%	34.53%	130 ± 23 nM	398 ± 46 nM	230 ± 35 nM	37.40%	6.08%	140 ± 16 nM	38.91%	12.17%	IC50 (CCRF-CEM): 110 ± 21 nM; IC50 (MCF-7; MCF7, 72 h): 119 ± 6.4 nM; IC50 (K562; K562, 72 h): 130 ± 21 nM; IC50 (HEK 293T; HEK-293T): 38 ± 0.97 nM; IC50 (A549; A549, 72 h): 90 ± 14 nM; IC50 (L929; Mus musculus, L929, 72 h): > 10000 nM
C[C@@H]1O[C@@H](O[C@H]2C[C@@H](O)[C@]3(CO)[C@H]4[C@H](O)C[C@]5(C)[C@@H](C6=CC(=O)OC6)CC[C@]5(O)[C@@H]4CC[C@]3(O)C2)[C@H](O)[C@H](O)[C@H]1O [Ob, ouabain]	–	–	20.68%	40.42%	33.80%	1.73%	25.78%	33.31%	33.94%	25.27%	0.63%	40.80%	–	–	–	40.53%	19.29%	–	39.77%	6.56%	IC50 (PC-3; PC-3, MTS, 72 h, read-out: IC50): 49 ± 1.4 nM; IC50 (MiaPaCa-2; MIA PaCa-2, MiaPaCa-2, MTS, 72 h, read-out: IC50): 49 ± 2.01 nM; IC50 (HCT116p53-/-; HCT116p53-/-, MTS, read-out: IC50): 28 ± 7.6 nM; IC50 (5637; 5637, MTS, read-out: IC50): 110 ± 11 nM; IC50 (BJ; BJ noncancerous foreskin fibroblasts, MTS, read-out: IC50): 54 ± 9.9 nM; IC50 (HCT116; HCT-116, HCT116, MTS, 72 h, read-out: IC50): 30 ± 3.6 nM; IC50 (CCRF-CEM; MTS, read-out: IC50): 32 ± 5.8 nM; IC50 (MCF-7; MCF7, MCF-7, MTS, 72 h, read-out: IC50): 52 ± 5.6 nM; IC50 (K562; K562, MTS, 72 h, read-out: IC50): 57 ± 6.2 nM; IC50 (HEK 293T; HEK 293T, MTS, read-out: IC50): 35 ± 1.2 nM; IC50 (A549; A549, MTS, 72 h, read-out: IC50): 22 ± 0.94 nM; IC50 (L929; L929 mouse transformed fibroblasts, MTS, 72 h, read-out: IC50): > 10000 nM
CO[C@H]1C[C@H](O[C@H]2CC[C@]3(C=O)[C@H]4CC[C@]5(C)[C@@H](C6=CC(=O)OC6)CC[C@]5(O)[C@@H]4CC[C@]3(O)C2)O[C@H](C)[C@H]1O [Cy, cymarin]	26 ± 2.9 nM	44 ± 8.6 nM	2.89%	35.78%	24.35%	1.43%	39.87%	7.01%	40.34%	28.49%	1.08%	31.17%	19 ± 3.8 nM	89 ± 5.5 nM	54 ± 10 nM	32.34%	21.37%	21 ± 2.5 nM	35.63%	27.52%	IC50 (CCRF-CEM): 14 ± 2.1 nM; IC50 (MCF-7; MCF7, 72 h): 29 ± 8.1 nM; IC50 (K562; K562, 72 h): 25 ± 4.5 nM; IC50 (HEK 293T; HEK-293T): 3.02 ± 1.4 nM; IC50 (A549; A549, 72 h): 15 ± 1.8 nM; IC50 (L929; Mus musculus, L929, 72 h): > 10000 nM
C[C@]12CC[C@H]3[C@@H](CCC4=C[C@@H](O[C@@H]5OC[C@@H](O[C@@H]6O[C@H](CO)[C@@H](O)[C@H](O)[C@H]6O)[C@H](O)[C@H]5O)CC[C@@]43C=O)[C@@]1(O)CC[C@@H]2C1=CC(=O)OC1 [Hyr, (3β)-3-[(4-O-β-D-glucopyranosyl-β-D-xylopyranosyl)oxy]-14-hydroxy-19-oxocarda-4,20(22)-dienolide]	756 ± 29 nM	491 ± 23 nM	2.82%	38.48%	26.30%	1.41%	35.22%	5.82%	42.13%	34.86%	0.95%	23.01%	730 ± 98 nM	1510 ± 51 nM	1450 ± 250 nM	30.58%	23.58%	670 ± 37 nM	28.80%	3.82%	IC50 (CCRF-CEM): 660 ± 38 nM; IC50 (MCF-7; MCF7, 72 h): 566 ± 29 nM; IC50 (K562; K562, 72 h): 800 ± 52 nM; IC50 (HEK 293T; HEK-293T): 383 ± 8.9 nM; IC50 (A549; A549, 72 h): 550 ± 38 nM; IC50 (L929; Mus musculus, L929, 72 h): > 10000 nM

Source: PMC7827417, “Steroid Glycosides Hyrcanoside and Deglucohyrcanoside: On Isolation, Structural Identification, and Anticancer Activity” (Foods, 2021)
